This is an account of results in US12629384B2, “Use of 8,9-dihydrocannabidiol compounds” (The Regents of the University of California, priority 2019, dated 2026).

The subject of data set [1] is PTZ-induced generalised seizures. The data set is described as follows: acute PTZ-induced generalised seizures in rat (antiseizure study). As to conditions: for maximum seizure severity, median (IQR) / percentage of animals that exhibited tonic-clonic seizures: 200 mg kg^-1 i.p. 1 h before PTZ 85 mg kg^-1; for maximum seizure severity, median (IQR): vehicle median 5, P<0.001 vs vehicle; for percentage of animals that exhibited tonic-clonic seizures: vs vehicle treated group, P<0.05. The class given is in vivo. How it is done:
Animals: Male, Wistar Han rats (70-110 g; Harlan, Bicester, UK) were housed on a 12 h light-dark cycle, with food and water available ad libitum. All experiments were conducted in accordance with the UK Animals (Scientific Procedures) Act, 1986 and ARRIVE guidelines for reporting experiments involving animals; 60 rats were used in total.
Drug administration: Animals were randomly divided into 5 groups of 12 animals per group and received either vehicle (ethanol, Cremophor EL and saline (0.9% w/v NaCl), 2:1:17), a positive control (cannabidiol; CBD; 200 mg kg^−1; Sigma-Aldrich, UK) or 8,9-dihydrocannabidiol (H2CBD; 50, 100 or 200 mg kg^−1) via i.p. injection 1 h prior to administration of the convulsant agent to achieve brain cannabinoid Tmax. The convulsant agent pentylenetetrazole (PTZ; 85 mg kg^−1 in 0.9% w/v NaCl) was administered i.p. 1 h after drug or vehicle treatment. Seizure activity was video recorded for 30 min and video records blinded before offline review and coding using a modified Racine scale (0, normal behaviour; 0.5, abnormal behaviour; 1, isolated myoclonic jerk; 2, atypical clonic seizure; 3, bilateral forelimb clonus; 3.5, bilateral forelimb clonus with body twist; 4, tonic-clonic seizure with suppressed tonic phase; 5, fully developed tonic-clonic seizure).
(§1) Statistics: Statistical procedures were performed using GraphPad Prism 7 (GraphPad Software, Inc., San Diego, CA, USA).
In the present study, 60 male, Wistar Han rats were randomly divided into 5 groups of 12 animals each and received either vehicle (ethanol, Cremophor EL, 0.9% w/v saline; 2:1:17), vehicle plus a positive control (CBD; 200 mg kg^−1), or vehicle plus H2CBD (50, 100, or 200 mg kg^−1) via intraperitoneal injection one hour prior to administration of the convulsant agent pentylenetetrazole (PTZ; 85 mg kg^−1 in 0.9% w/v saline).

Data set [2] in a line: blood and brain concentrations post-mortem by HPLC. The class given is in vivo, rat. To be noted: samples 90 minutes after administration. On the procedure: Assessment of bioanalytes: Chemicals and reagents. 4,4-Dichlorodiphenyltrichloroethane (DDT, CAS: 50-29-3) was used as the internal analytical standard (IS). HPLC grade n-hexane, acetonitrile, water and ascorbic acid were purchased from Sigma Aldrich (UK) and Fisher Scientific.
Analysis of plasma and brain samples: Stock standard solutions of CBD, H2CBD and DDT were prepared in acetonitrile (5 mg/ml and 1 mg/mL) and stored at −20° C. until use. These were further diluted in acetonitrile:water (62:38), to achieve calibration concentrations of 0.1, 0.2, 0.5, 1.5, 10 μg/mL. Plasma samples were prepared for HPLC using a previously validated method. Briefly, DDT ([…]) was added to 150 μL of rat plasma sample as internal standard and plasma proteins were precipitated by the addition of 600 μL of ice cold acetonitrile followed by water (600 μL), with 1 min vortexing between additions. n-Hexane (3 mL) was added to each tube and following a 5 min vortex, tubes were centrifuged at 1160×g for 15 min at 10° C. and the upper organic layer was carefully decanted by glass pipette and retained. The organic layer was evaporated to dryness under a stream of nitrogen at room temperature and reconstituted in 150 μL of the mixture of acetonitrile and water (62:38) prior to HPLC analysis.
For brain analysis, brains were weighed and 1.5× ice-cold solvent (90% acetonitrile; 10% water; 0.1% ascorbic acid) (w/v) was added followed by homogenization for 1 min. DDT (50 μg/ml) was added to each homogenized brain tissue as internal standard, samples were mixed and allowed to equilibrate overnight at −20° C. Samples were then centrifuged at 3500 rpm for 15 min and the top layer retained. Samples were dried by SpeedVac concentrator at room temperature (Savant SPD131DDA, ThermoFisher Scientific, UK) and reconstituted in 150 μL of the mixture of acetonitrile and water (62:38) for HPLC analysis.
HPLC analysis: An Agilent 1200 series HPLC (Hewlett-Packard, Palo Alto, CA, USA) equipped with a photodiode array detector was used for analysis. 30 μl of all samples were injected and separation was achieved using an ACE C18-PFP 150 mm×4.6 mm, 3 μm particle size column (Hichrom Ltd., Reading, UK), protected by an ACE C18-PFP […] guard cartridge. The mobile phase was a mixture of acetonitrile and water in a ratio of 62:38 (v/v). The flow rate was set at 1 mL/min and column temperature was maintained at 55° C. The absorbance of all compounds of interest (CBD and DH-CBD) was monitored at 220 nm.
as §1

For data set [3] the following is noted: simulated gastric fluid, within one hour; cited from earlier work.
Data set [4] deals with rodent behavior. Briefly: EPM test. The class given is in vivo, rat. As to conditions: 200 mg kg^-1 i.p., 45 minutes post injection; drug vs vehicle; p=0.49. On the procedure:
(§2) 12 adult male Sprague Dawley rats were divided at random into two groups of 6 animals each and received either vehicle (Kolliphor RH-40, dmso, 0.9% w/v saline, 1:2:7) or vehicle plus H2CBD (200 mg kg^−1), administered by intraperitoneal injection. The vehicle differed in this case from the anti-seizure study to avoid the potentially confounding effect of alcohol. The number of animals was also limited to the lowest population necessary to establish an effect at the maximum dosage of drug. At 45 minutes post vehicle and drug injections, rats were placed in the center of the EPM and time spent on the open versus closed arms of the maze was recorded. After an interval of two weeks, the same 12 rats were again divided at random into two groups of 6 animals each and dosed as above. Spontaneous locomotor activity was measured 45 minutes after injection by placing the animals in the center of a 16″×16″ arena. Free movement was allowed for 30 minutes and recorded using an automated activity monitoring system.

The test system of data set [5] is rodent behavior. Briefly: open field test, spontaneous locomotor activity. The class given is in vivo, rat. How it is done: as §2
The next data set deals with cytochrome P450. As to conditions: hepatic microsomal metabolism; consistent with CBD; cited from earlier work.
In a further data set the test system is murine macrophages. To be noted: consistent with CBD; cited from earlier work.
For data set [6] the following is noted: in contrast to CBD; cited from earlier work.

SMILES strings stand for the structures.

Consider `C=C(C)[C@@H]1CCC(C)=C[C@H]1c1c(O)cc(CCCCC)cc1O` [CBD, cannabidiol], for which, in data set [1], the “maximum seizure severity, median (IQR)” value is listed as 2 (0.25-3.75 IQR) Racine scale and the “percentage of animals that exhibited tonic-clonic seizures” value is recorded as “significantly fewer animals”. For the same molecule, in data set [2] (200 mg/kg i.p., P<0.01), the “brain tissue concentration vs vehicle treated group” value was “significant concentrations”. Further, the “degradation mainly to Δ8- and Δ9-THCs” value in data set [3] was “nearly complete degradation”.

Regarding `CCCCCc1cc(O)c([C@@H]2C=C(C)CC[C@H]2C(C)C)c(O)c1` (relative stereo) [Example H2CBD, 2-(6-Isopropyl-3-methylcyclohex-2-en-1-yl)-5-pentylbenzene-1,3-diol], in data set [1], the “maximum seizure severity, median (IQR)” value is 2 (0.25-4.25 IQR) Racine scale and the “percentage of animals that exhibited tonic-clonic seizures” value is on record as “significantly fewer animals”. Also, in data set [1] (50, 100, 200 mg kg^-1 i.p., maximal protective effect comparable to matching dose of CBD), the anticonvulsant action entry is given as “dose-dependent anticonvulsant action”. In data set [2] (100 mg/kg i.p., P<0.05), the “blood concentration vs vehicle treated group” value is reported as “significant concentrations”. In data set [2] (200 mg/kg i.p., P<0.01), the “blood concentration vs vehicle treated group” value was “significant concentrations” and the “brain tissue concentration vs vehicle treated group” value was “significant concentrations”. For the same molecule, in the data set with rodent behavior [4], the “percent time spent on the open arms” value is given as “No statistically significant differences”. The horizontal distance traveled result with rodent behavior [5] (200 mg kg^-1 i.p., 30 min from 45 minutes after injection, drug vs vehicle, P=0.95) was “no statistically significant differences”. For the same molecule, in the data set with rodent behavior [5] (200 mg kg^-1 i.p., 30 min from 45 minutes after injection, drug vs vehicle, p=0.14), the “time in the arena center” value is given as “no statistically significant differences”. For the same molecule, in the data set on rodent behavior [5] (200 mg kg^-1 i.p., 30 min from 45 minutes after injection, drug vs vehicle, p=0.25), the vertical activity entry is recorded as “no statistically significant differences”. In addition, in the data set with rodent behavior [5] (high dosage, 200 mg kg^-1), the “behavioral effects (EPM and open field overall)” value is “no measurable behavioral effects”. Also, the “effect on cytochrome P450” value with cytochrome P450 is given as “inhibitory effect”. Also, the antioxidant activity entry in the data set on murine macrophages was “antioxidant activity”. Further, the sedative activity entry in data set [6] was “little if any evidence of sedative activity”.
